Measured values from PMC4084896 (PLoS ONE, 2014).
≈ marks a conversion by molar mass, not a printed value.

Assays:
AhR = target: T1, AhR (Mus musculus, UniProt P30561); assay: EMSA with nuclear extracts from Hepa-1c1c7 cells (AhR-ARNT-DRE complex); type: cell-based; settings: Hepa-1c1c7 nuclear extracts, 50 µM, 2 h
T1 construct: endogenous in cells; host or cells: mouse hepatoma Hepa-1c1c7 cells (living cells treated 2 h, then nuclear extracts made)
Procedure: Electrophoretic mobility shift assay was performed in guinea pig cytosol and nuclear extract from mouse hepatoma cells. Hepa-1c1c7 cells were incubated for 2 h with tested compounds. Nuclear extracts procedure and EMSA analysis was performed as previously described (Soshilov & Denison; 2014). Guinea pig hepatic cytosol (8 mg/mL in HEDG) was incubated for 2 h in a room temperature water bath with tested compounds. An aliquot of the reaction was mixed with poly[dI•dC] and [^32P]-DRE (100.000 cpm), and AHR:DRE:[^32P]DRE complexes were resolved by gel retardation analysis, visualized by autoradiography and quantified by phosphorimager analysis (FujiFilm) of the dried gels.
We carried out the electrophoretic mobility shift assay (EMSA) to reveal whether effects of KET on AhR-CYP1A pathway involve transformation of AhR to DNA binding form, and whether these effects are enantiospecific. For this purpose, EMSA was performed in two experimental systems: (i) Hepatic guinea pig cytosol was treated for 2 hours with DMSO, 20 nM TCDD, (+)-KET, (−)-KET and commercial rac-KET (from Sigma) at 10 µM, 30 µM and 50 µM. All forms of KET transformed AhR to DNA binding form, but the activation was very weak and not statistically above background. There was a slightly stronger effect of (+)-KET and rac-KET as compared to (−)-KET, but the difference was not significant (Figure 4A). (ii) Since we obtained only weak signals in guinea pig liver cytosols, we also analyzed nuclear extracts from mouse hepatoma Hepa-1c1c7 cells treated for 2 hours with DMSO, TCDD (10 nM), (+)-KET (50 µM), (−)-KET (50 µM), commercial rac-KET (Sigma; 50 µM) or an equimolar mix of (+)/(−) enantiomers (50 µM total). […] The effects of (−)-KET were slightly stronger as compared to (+)-KET. […] In addition, we observed formation of the second band with lower molecular weight than AhR-ARNT-DRE, by purified KET enantiomers but not by TCDD and commercial KET.

[1] = target: T2, glucocorticoid receptor (GR) (Homo sapiens, UniProt P04150); assay: GR gene reporter assay in AZ-GR cells, antagonist mode (DEX 100 nM); type: cell-based; settings: 24 h
T2 sequence (P04150 1-777): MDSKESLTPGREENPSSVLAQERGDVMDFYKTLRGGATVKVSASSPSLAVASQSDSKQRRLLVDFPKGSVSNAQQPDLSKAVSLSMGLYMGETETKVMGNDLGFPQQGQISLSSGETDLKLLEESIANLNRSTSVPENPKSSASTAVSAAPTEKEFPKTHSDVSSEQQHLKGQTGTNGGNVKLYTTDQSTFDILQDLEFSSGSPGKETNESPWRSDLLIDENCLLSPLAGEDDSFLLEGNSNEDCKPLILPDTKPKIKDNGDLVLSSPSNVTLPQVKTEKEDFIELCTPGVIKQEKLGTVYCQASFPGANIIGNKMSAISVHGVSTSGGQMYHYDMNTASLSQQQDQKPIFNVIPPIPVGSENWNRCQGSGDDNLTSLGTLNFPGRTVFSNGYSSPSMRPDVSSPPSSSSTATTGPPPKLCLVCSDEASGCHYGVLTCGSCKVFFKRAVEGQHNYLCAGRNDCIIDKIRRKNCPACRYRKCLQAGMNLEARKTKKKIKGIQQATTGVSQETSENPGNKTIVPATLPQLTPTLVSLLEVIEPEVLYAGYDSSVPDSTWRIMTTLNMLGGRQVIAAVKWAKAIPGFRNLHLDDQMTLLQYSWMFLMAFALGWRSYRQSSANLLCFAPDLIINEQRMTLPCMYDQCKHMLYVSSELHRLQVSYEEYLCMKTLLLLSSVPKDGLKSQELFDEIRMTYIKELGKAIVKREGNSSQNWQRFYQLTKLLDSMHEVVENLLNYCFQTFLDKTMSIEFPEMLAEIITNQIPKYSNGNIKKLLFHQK
From the text: (§1) A stably transfected gene reporter cell line AZ-AHR, derived from human hepatoma HepG2 cells transfected with a construct containing several AhR binding sites upstream of a luciferase reporter gene, was used for assessment of AhR transcriptional activity. A stably transfected gene reporter cell line AZ-GR, derived from human cervix carcinoma HeLa cells transfected with a construct containing several GR response elements upstream of a luciferase reporter gene, was used for assessment of GR transcriptional activity. Cells were incubated for 24 h with tested compounds and/or vehicle (DMSO; 0.1% v/v), in the presence or absence of TCDD (5 nM; AZ-AHR cells) or DEX (100 nM; AZ-GR cells). After the treatments, cells were lysed and luciferase activity was measured. In parallel, cell viability was determined by conventional MTT test.
(§2) There is multiple evidence for the role of glucocorticoid receptor (GR) in regulation of AhR activity. […] Gene reporter assays were performed in agonist and antagonist mode (similarly as described in section 3.1.).

[2] = MTT cytotoxicity test in AZ-AHR cells; type: cell-based, human; settings: human; 24 h incubation, six passages; read-out: AZ-AHR viability - MTT IC50
From the text: as §1
Prior to the agonist or antagonist experiments, the cytotoxicity of tested compounds was assessed using the conventional MTT assay. […] The vehicle was DMSO (0.1% v/v). After the treatment, a MTT test was performed.

[3] = target: T3, aryl hydrocarbon receptor AhR (Homo sapiens, UniProt P35869); assay: AhR gene reporter assay in AZ-AHR cells, agonist mode; type: cell-based
T3 construct: endogenous in cells; host or cells: AZ-AHR (stably transfected reporter line derived from HepG2)
T3 sequence (P35869 11-848): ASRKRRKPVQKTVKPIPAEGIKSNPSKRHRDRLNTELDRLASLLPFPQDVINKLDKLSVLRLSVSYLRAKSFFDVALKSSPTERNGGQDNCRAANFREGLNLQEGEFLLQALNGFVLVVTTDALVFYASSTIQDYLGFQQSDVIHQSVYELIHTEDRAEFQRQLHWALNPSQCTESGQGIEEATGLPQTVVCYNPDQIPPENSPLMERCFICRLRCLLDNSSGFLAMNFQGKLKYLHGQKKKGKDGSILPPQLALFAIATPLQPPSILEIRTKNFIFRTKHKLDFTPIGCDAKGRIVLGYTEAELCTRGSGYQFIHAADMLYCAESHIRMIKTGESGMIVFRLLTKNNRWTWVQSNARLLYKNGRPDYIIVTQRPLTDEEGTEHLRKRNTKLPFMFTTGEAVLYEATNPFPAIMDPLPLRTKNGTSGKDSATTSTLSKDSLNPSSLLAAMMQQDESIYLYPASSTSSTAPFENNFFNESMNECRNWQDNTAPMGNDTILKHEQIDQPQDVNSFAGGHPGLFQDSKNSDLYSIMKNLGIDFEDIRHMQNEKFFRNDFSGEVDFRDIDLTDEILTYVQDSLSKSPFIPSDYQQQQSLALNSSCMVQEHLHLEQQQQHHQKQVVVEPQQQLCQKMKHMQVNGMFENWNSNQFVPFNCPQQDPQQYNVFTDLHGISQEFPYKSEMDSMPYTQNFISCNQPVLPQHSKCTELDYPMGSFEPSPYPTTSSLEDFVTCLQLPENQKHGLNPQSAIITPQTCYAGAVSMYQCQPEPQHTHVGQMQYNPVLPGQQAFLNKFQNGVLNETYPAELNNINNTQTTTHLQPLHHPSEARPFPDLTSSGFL
From the text: as §1
(§3) Gene reporter assays were performed in two different experimental layouts. In agonist mode, cells were treated with increasing concentrations of tested compounds, and the half-maximal effective concentrations (EC50) were calculated.

[4] = target: T3, aryl hydrocarbon receptor AhR; assay: AhR gene reporter assay in AZ-AHR cells, antagonist mode (TCDD 5 nM); type: cell-based; settings: 24 h, in the presence of TCDD 5 nM
From the text: as §1, §3

[5] = MTT cytotoxicity test in primary human hepatocytes; type: cell-based; settings: primary human hepatocytes, read-out: viability, % of control value
From the text: as §1
The cells were treated for 24 h with (+)-KET, (−)-KET and commercial rac-KET (1 µM, 30 µM, 50 µM), and with TCDD (5 nM) and vehicle (DMSO; 0.1% V/V). […] In the cytotoxicity assay, we found all forms of KET highly toxic against human hepatocytes at the concentration 50 µM.

AZ-GR cells = assay: MTT cytotoxicity test in AZ-GR cells; type: cell-based, human; settings: Homo sapiens; 24 h incubation; read-out: AZ-GR viability - MTT IC50
From the text: as §1, §2

[6] = target: T2, glucocorticoid receptor (GR); assay: GR gene reporter assay in AZ-GR cells, agonist mode; type: cell-based
From the text: as §1, §2

[7] = system: tyrosine aminotransferase (TAT) mRNA; assay: TAT mRNA in HepG2 cells (qRT-PCR); type: cell-based, human; settings: HepG2, 1, 30, 50 µM, 24 h
C. albicans 1 = assay: MIC assessment, microdilution; type: cell-based; settings: Candida albicans
Procedure: (§4) Antifungal activity was assessed using the standard microdilution method determining the minimum inhibitory concentrations (MICs) of the tested samples leading to inhibition of yeast growth. Disposable microtiter plates were used for the tests. The samples were diluted in brain heart infusion broth (HiMedia). […] C. albicans, C. krusei, C. tropicalis and C. parapsilosis. […] Subsequently, 100 µL were transferred into the first microplate well and serially diluted by a factor of 2. The prepared microplates were inoculated with a standard amount of the tested Candida spp. – the inoculum density in a well was equal to 10^5 CFU/mL. […] The minimum fungicidal concentration (MFC) is the minimum concentration of the sample required to kill the yeast after a defined period of incubation. The MFCs were determined by the inoculation method. With an applicator, 10 µL were transferred from the microplate wells with defined concentrations of the tested sample and inoculated onto Sabouraud agar (Trios). The MFC was determined as the lowest concentration that inhibited the visible growth of the used yeast. For growth curve assessment, the samples were serially diluted in 96-well microtiter plates. […] Absorbance (630 nm) was measured every hour during 24 hours and the obtained values were used to plot growth curves

C. albicans 978 = assay: MIC assessment, microdilution; type: cell-based; settings: Candida albicans
Procedure: as §4

C. krusei 094 = assay: MIC assessment, microdilution; type: cell-based; settings: Pichia kudriavzevii
Procedure: as §4

C. krusei 3 = assay: MIC assessment, microdilution; type: cell-based; settings: Pichia kudriavzevii
Procedure: as §4

C. parapsilosis 6 = assay: MIC assessment, microdilution; type: cell-based; settings: Lodderomyces parapsilosis
Procedure: as §4

C. tropicalis 5 = assay: MIC assessment, microdilution; type: cell-based; settings: Candida tropicalis
Procedure: as §4

T1 sequence (P30561 10-805 limits assumed): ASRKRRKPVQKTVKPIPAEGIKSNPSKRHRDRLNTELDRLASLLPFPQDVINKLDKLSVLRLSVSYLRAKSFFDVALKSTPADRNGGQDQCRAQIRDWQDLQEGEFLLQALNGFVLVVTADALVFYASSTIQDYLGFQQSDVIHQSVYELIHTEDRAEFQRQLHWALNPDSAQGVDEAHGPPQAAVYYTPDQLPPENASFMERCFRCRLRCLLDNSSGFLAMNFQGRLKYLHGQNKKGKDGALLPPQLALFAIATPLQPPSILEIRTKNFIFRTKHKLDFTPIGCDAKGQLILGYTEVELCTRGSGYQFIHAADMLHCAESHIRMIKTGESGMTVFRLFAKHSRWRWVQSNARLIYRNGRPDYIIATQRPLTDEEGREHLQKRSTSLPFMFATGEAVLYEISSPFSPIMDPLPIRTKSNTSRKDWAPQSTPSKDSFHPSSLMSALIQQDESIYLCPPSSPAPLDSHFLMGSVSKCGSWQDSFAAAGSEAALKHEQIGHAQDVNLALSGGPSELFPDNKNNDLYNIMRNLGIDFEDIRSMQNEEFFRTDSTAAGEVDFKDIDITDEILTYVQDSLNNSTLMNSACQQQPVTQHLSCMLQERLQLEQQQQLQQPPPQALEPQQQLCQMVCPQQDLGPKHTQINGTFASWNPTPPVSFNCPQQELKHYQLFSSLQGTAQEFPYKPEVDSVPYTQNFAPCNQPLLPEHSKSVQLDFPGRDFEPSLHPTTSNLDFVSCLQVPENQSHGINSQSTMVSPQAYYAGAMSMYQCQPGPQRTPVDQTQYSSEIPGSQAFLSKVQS
T1 sequence (P53762 whole entry partner): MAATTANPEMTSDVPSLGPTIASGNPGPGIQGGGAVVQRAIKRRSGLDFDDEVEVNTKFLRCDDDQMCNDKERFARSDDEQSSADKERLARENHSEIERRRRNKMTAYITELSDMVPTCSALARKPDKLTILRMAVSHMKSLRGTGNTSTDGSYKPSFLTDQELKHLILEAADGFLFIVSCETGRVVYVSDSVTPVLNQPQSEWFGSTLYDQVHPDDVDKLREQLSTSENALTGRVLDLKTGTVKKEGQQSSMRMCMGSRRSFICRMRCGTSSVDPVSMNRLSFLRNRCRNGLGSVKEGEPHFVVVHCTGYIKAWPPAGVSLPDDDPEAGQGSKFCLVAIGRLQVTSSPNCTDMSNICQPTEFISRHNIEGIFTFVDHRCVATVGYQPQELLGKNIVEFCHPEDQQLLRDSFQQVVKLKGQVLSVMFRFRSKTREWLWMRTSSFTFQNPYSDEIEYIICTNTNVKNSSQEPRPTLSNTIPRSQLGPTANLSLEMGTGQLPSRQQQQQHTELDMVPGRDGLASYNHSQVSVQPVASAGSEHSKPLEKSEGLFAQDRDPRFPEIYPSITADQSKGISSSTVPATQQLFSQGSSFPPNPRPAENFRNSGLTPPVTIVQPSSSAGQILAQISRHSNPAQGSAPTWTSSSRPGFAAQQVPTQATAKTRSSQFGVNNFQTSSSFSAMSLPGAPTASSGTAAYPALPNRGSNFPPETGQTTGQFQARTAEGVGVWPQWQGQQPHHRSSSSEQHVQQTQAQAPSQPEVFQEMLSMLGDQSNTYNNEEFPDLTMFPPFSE

Row | MIC (C. albicans 1) [µg/mL] | MIC (C. albicans 978) [µg/mL] | MIC (C. krusei 094) [µg/mL] | MIC (C. krusei 3) [µg/mL] | MIC (C. parapsilosis 6) [µg/mL] | MIC (C. tropicalis 5) [µg/mL] | Structure (SMILES) | transformation of AhR to DNA binding form (in words) (AhR) | other results
1 | 0.38 (≈ 1.24 µM) | 1.5 (≈ 4.9 µM) | 32 (≈ 104 µM) | 48 (≈ 157 µM) | 2 (≈ 6.53 µM) | 6 (≈ 19.6 µM) | OC(Cn1cncn1)(Cn1cncn1)c1ccc(F)cc1F [Fluconazole, fluconazole] | – | –
2 | 0.016 (≈ 0.0458 µM) | 0.016 (≈ 0.0458 µM) | 0.19 (≈ 0.544 µM) | 0.19 (≈ 0.544 µM) | 0.023 (≈ 0.0658 µM) | 0.19 (≈ 0.544 µM) | C[C@@H](c1ncncc1F)[C@](O)(Cn1cncn1)c1ccc(F)cc1F [Voriconazole, voriconazole] | – | –

The next lines start with the molecule.

Row | Structure (SMILES) | MIC (C. albicans 1) [µg/mL] | MIC (C. albicans 978) [µg/mL] | MIC (C. krusei 094) [µg/mL] | MIC (C. krusei 3) [µg/mL] | MIC (C. parapsilosis 6) [µg/mL] | MIC (C. tropicalis 5) [µg/mL] | transformation of AhR to DNA binding form (in words) (AhR) | other results
3 | CC(=O)N1CCN(c2ccc(OCC3COC(Cn4ccnc4)(c4ccc(Cl)cc4Cl)O3)cc2)CC1 (racemic) [racemic KET obtained by mixing pure (+)-KET and pure (−)-KET in ratio 1∶1] | – | – | – | – | – | – | much weaker and comparable with individual enantiomers | antagonist effect in titration experiment (in words) ([1]; final concentration 50 µM, DEX 100 nM): much stronger as compared to commercial rac-KET
4 | CC(=O)N1CCN(c2ccc(OC[C@@H]3CO[C@@](Cn4ccnc4)(c4ccc(Cl)cc4Cl)O3)cc2)CC1 [(−)-KET, (2S,4R)-(−)-KET] | – | – | – | – | – | – | only weakly transformed | IC50 at 24 h [2]: 72.7 ± 27.3 µM; AZ-AHR gene reporter - agonist efficacy [3]: 5,2 ± 3,2%; EC50 ([3]; 24 h, agonist mode): 2.2 µM; IC50 [4]: 17.5 ± 1.7 µM; viability at 24 h, 50 µM [5]: 37%; IC50 (AZ-GR cells): 71.6 ± 27.5 µM; increase of luciferase activity, agonist mode ([6]; up to / at 100 µM, 24 h): did not induce luciferase activity; IC50 ([1]; in the presence of DEX 100 nM): 26.7 ± 3.7 µM; TAT mRNA induction (in words) [7]: strong, concentration-dependent induction
5 | C[C@@H]1C[C@H]2[C@@H]3CCC4=CC(=O)C=C[C@]4(C)[C@@]3(F)[C@@H](O)C[C@]2(C)[C@@]1(O)C(=O)CO [DEX, dexamethasone] | – | – | – | – | – | – | – | average induction of GR-dependent luciferase activity ([6]; 100 nM DEX, four passages): 70 fold
6 | CC[C@@H]([C@H](C)O)n1ncn(-c2ccc(N3CCN(c4ccc(OC[C@@H]5CO[C@@](Cn6cncn6)(c6ccc(F)cc6F)C5)cc4)CC3)cc2)c1=O [Posaconazole, posaconazole] | 0.094 (≈ 0.134 µM) | 0.064 (≈ 0.0913 µM) | 0.25 (≈ 0.357 µM) | 0.19 (≈ 0.271 µM) | 0.032 (≈ 0.0457 µM) | 0.19 (≈ 0.271 µM) | – | –
